pKi: −log10 of the molar value. Like-named read-outs stand apart in the source and are kept apart here.
How the values were obtained:
[1] = biological target: T1, Cathepsin L from rat liver (Rattus norvegicus, UniProt P07154); assay: Inhibition of cathepsin L, Z-Phe-Arg-AMC fluorescence progress curves; type: biochemical; details: for pKi: corrected for substrate; for kobs /[I]* (approximate second-order inactivation constant): values marked *; for kobs /[I]* (approximate second-order inactivation constant) / k/KI (kirr/KI): 25° C., pH 6.2; for k/KI (kirr/KI): values without asterisk
T1 construct: Cathepsin L from rat liver; from tissue; host or cells: rat liver
How it was run: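 Progress curves of AMC release (380/460 nm) over at least 3 inactivation half-times were fitted to kobs, reported as kobs/[I] or, via 1/[I] vs 1/kobs, kirr, KI (substrate-corrected) and kirr/KI.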

U251MGn = assay: Matrigel barrier migration assay, U251MGn; type: cell-based, human; parameters: dose or concentration left out as unconfirmed
Method: (§1) Two permanent human glioma cell lines (U87MG and U251MGn) and a well characterized low passage primary culture derived from a CB-positive glioblastoma (HF66) were used to assess the migratory behavior in the Matrigel barrier migration assay in the presence of graded concentrations of four compounds.
(§2) Using the Matrigel assay, Mu-Leu-HphVSPh, Mu-Tyr-HphVSPh, Mu-Phe-HphVSPh, and Mu-Tyr(I2)-HphVSPh (all at 10 mM) inhibited U251MGn by 67, 56, 29, & 20% respectively, while the U87MG cells were inhibited 53, 75, 63, & 56% respectively. The primary culture HF66 cells were inhibited only 10% by these compounds at the same concentration.

[2] = system: Leishmania donovani amastigote infected mouse peritoneal macrophages; assay: In vitro antiprotozoal activity, Leishmania donovani; type: cell-based; parameters: key to percentage inhibition, L. donovani: the term "T" indicates the molecule to have displayed cytotoxicity
Method: In this table, the in vitro antiprotozoal activities of the indicated compounds were measured as percentage inhibition of Leishmania donovani amastigote infecteda mouse peritoneal macrophages, Trypanosoma cruzi amastigote infected macrophages, and Trypanosoma brucei extracellular bloodstream forms.

cruzain, from T. cruzi = cruzain, from T. cruzi (Trypanosoma cruzi, UniProt P25779); assay: Inhibition of cruzain, as for cathepsin L; type: biochemical; details: for k/KI (kirr/KI): values without asterisk
How it was run: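 Run as for cathepsin L with 1 nM cruzain in 50 mM phosphate pH […], 2.5 mM DTT, 2.5 mM EDTA, 5 μM Z-Phe-Arg-AMC, at 25 °C, inhibitors 30-0.001 μM; fluorescence (ex 380/em 460 nm) followed continuously. kobs fitted from progress curves and kobs/[I] reported; selected compounds gave kirr, KI, kirr/KI, with KI corrected by (1+[S]/Km).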

Female Lewis rats = assay: Mycobacterium butyricum induced arthritis in rats, compound in chow, 28 days; type: in vivo, rat
Method: At day zero, Female Lewis rats (5/group), 5 weeks old, were given intradermal injection into the base of the tail of Mycobacterium butyricum in 0.1 ml of light mineral oil. The animals were provided Teklad (4%) rat chow mixed with (treated groups) or without compound (control group) and water ad libilum. The compounds used were Mu-Phe-HphVSPh, Mu-Leu-HphVSPh, Mu-Tyr-HphVSPh, Mu-Phe-Lys(ε-Z)VSPh, Mu-Phe-LysVSPh-HBr. The compounds were given to three groups at 3, 10, and 30 mg/kg/day, respectively. The following parameters were noted: biweekly weights and biweekly joint evaluations by the following scoring system: paw swelling 0=no edema, 1=slight edema of small digital joints, 2=edema of the digital joints and foot pad, 3=gross edema of the entire foot pad below that ankle or elbow, 4=gross edema of the entire foot pad including the ankle and elbow joint Erythema was scored as: 0=normal, 1=pink, 2=red, 3=deep violaceous. The evaluators were blinded as to treatment groups.
After 28 days the animals were killed and the hind paws and knees were removed and fixed in 4% paraformaldehyde. […] Joint histopathology scores were calculated by the following method: two sections of each joint were read for synovial cell proliferation, cartilage erosion, bone erosion, fibroproliferative pannus, diffuse inflammatory synovitis, and synovial vasculitis: 0=normal, 1=mild, 2=moderate, 3=and severe. […]

U87MG = assay: Matrigel barrier migration assay, U87MG; type: cell-based, human; parameters: dose or concentration left out as unconfirmed
Method: as §1, §2

[3] = system: mouse malarial parasite Plasmodium vinckei; assay: In vitro protease activity of malarial parasite, substrate Z-Phe-Arg-AMC; type: biochemical; details: cells printed in nM; read-out: P. vinckei IC50 (murine)
From the text: (§3) The following table summarizes the comparative IC50 values for selected cysteine protease inhibitors against the human malarial parasite Plasmodium falciparum and the mouse malarial parasite Plasmodium vinckei. The substrate used to measure in vitro protease activity was Z-Phe-Arg-AMC.

[4] = system: human malarial parasite Plasmodium falciparum; assay: as above; type: biochemical; details: cells printed in nM; read-out: P. falciparum IC50 (human)
From the text: as §3

Chain of cruzain, from T. cruzi (P25779 123-337 limits assumed): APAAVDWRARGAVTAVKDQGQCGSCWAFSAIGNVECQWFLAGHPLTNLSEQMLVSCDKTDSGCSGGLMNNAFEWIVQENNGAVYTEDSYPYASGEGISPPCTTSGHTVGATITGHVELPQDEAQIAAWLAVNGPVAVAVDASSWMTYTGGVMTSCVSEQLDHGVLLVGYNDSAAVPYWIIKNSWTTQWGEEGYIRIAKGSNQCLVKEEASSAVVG
T1 sequence (P07154 114-288 limits assumed): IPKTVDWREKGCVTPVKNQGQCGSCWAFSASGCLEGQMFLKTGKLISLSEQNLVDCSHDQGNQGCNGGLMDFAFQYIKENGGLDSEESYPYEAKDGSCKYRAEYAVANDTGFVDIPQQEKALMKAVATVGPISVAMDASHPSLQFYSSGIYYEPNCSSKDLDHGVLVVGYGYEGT
T1 sequence (P07154 291-334 limits assumed): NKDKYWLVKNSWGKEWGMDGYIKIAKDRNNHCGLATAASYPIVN

kirr [1] [s⁻¹] | pKi [1] | pKi ([1]; listed as Mu-Phe-Hph-VSPh) | kirr ([1]; listed as Mu-Phe-Hph-VSPh) [s⁻¹] | kobs /[I]* (approximate second-order inactivation constant) [1] | k/KI (kirr/KI) [1] | k/KI (kirr/KI) ([1]; listed as Mu-Phe-Hph-VSPh) | pKi (cruzain, from T. cruzi) | kirr (cruzain, from T. cruzi) [s⁻¹] | k/KI (kirr/KI) (cruzain, from T. cruzi) | IC50 [3] [nM] | IC50 [4] [nM] | SMILES | inhibition of U251MGn migration (U251MGn) [%] | percentage inhibition, L. donovani ([2]; 3 uM) [%] | percentage inhibition, L. donovani ([2]; 10 uM) [%] | percentage inhibition, L. donovani ([2]; 30 uM) [%] | percentage inhibition, L. donovani ([2]; 90 uM) | effect on all scores (paw swelling, erythema, joint histopathology) (Female Lewis rats; 3, 10, and 30 mg/kg/day in chow, 28 days) | inhibition of U87MG migration (U87MG) [%] | bone and cartilage destruction (Female Lewis rats; high dose)
0.24 | 6.00 | 5.96 | 0.23 | 260,000 M^-1 sec^-1 | 224,000 M^-1 sec^-1 | 201,000 M^-1 sec^-1 | 5.49 | 0.43 | 134,000 M^-1 sec^-1 | 50 | 80 | O=C(N[C@H](/C=C/S(=O)(=O)c1ccccc1)CCc1ccccc1)C(Cc1ccccc1)NC(=O)N1CCOCC1 (stereo partly drawn) [Mu-Phe-HphVSPh, (S)-(E)-3-(4-morpholinecarbonyl-phenylalanyl)amino-5-phenyl-1-phenylsulfonyl-1-pentene] | 29 | 0 | 0 | 9.4 | T | dose dependent beneficial effect on all scores | 63 | –
0.40 | 6.09 | – | – | 28,700 M^-1 sec^-1 | 490,000 M^-1 sec^-1 | – | 6.28 | 0.11 | 213,000 M^-1 sec^-1 | 200 | 3 | CC(C)C[C@H](NC(=O)N1CCOCC1)C(=O)N[C@H](/C=C/S(=O)(=O)c1ccccc1)CCc1ccccc1 [Mu-Leu-HphVSPh, (S)-(E)-3-(4-morpholinecarbonylleucyl)amino-5-phenyl-1-phenylsulfonyl-1-pentene] | 67 | 4.6 | 0 | 15.3 | T | – | 53 | reduction in bone and cartilage destruction

From US6287840A (Axys Pharmaceuticals, Inc., priority 1999, dated 2001)
